Experimental data from patent publication US20070254894A1, “Novel small molecules with selective cytotoxicity against human microvascular endothelial cell proliferation” (priority 2006, published 2007).
Counter-ions that a name gives are not always drawn. Like-named read-outs stand apart in the source and are kept apart here.

Tests used:
[1] = system: HMVEC cells stimulated with b-FGF; experiment: b-FGF driven HMVEC proliferation screen; assay type: cell-based
Procedure: (§1) HMVEC cells were plated on collagen-coated plates at 2500 cells/well for 24 hours. Various concentrations of test compounds were then added to duplicate plates. […] Anti-FGF antibody (final concentration of 5 μg/mL) was added to four control wells as a standard inhibitor. At the same time the compounds were added, a T-zero plate was generated (Alamar blue was added to a plate and read after three hours). The plates with the compounds were incubated for one hour at 37° C., 5% carbon dioxide. At this point, b-FGF was added (final concentration of 2.5 ng/mL). Tween-20 (10 μL) was added to four additional control wells to represent total death and the plates were returned to the carbon dioxide incubator for 6 days.

[2] = system: HMVEC cells stimulated with VEGF 165; experiment: VEGF driven HMVEC proliferation screen; assay type: cell-based
Procedure: as §1
The assay was run identically using VEGF in place of b-FGF. The final concentration of VEGF 165, in this mode, was 10 ng/mL. The control inhibitor was anti-VEGF antibody (final concentration of […]). All other conditions were the same.

[3] = in vitro; details: human, primary human dermal fibroblasts, D. Fibroblast LC50, 6 days, Alamar blue
Procedure: (§2) In parallel with the VEGF and FGF screens, a normal cell toxicity assay was run. Primary Human Dermal Fibroblasts (Clonetics) were plated at 5000 cells/well. After 24 hours various concentrations of test compounds, were added in duplicate plates and 10% Tween-20 was added to four control wells to represent total death. At the same time a T-zero plate was generated. The plates were returned to the carbon dioxide incubator and on day 6 Alamar blue was added and the plates read after 3 hours.
(§3) Using a T-zero plate allows the observation of compounds that cause the cells to become static as well as inhibit growth.

[4] = system: retinal neovascularization; experiment: Mouse model of oxygen induced retinopathy (OIR), intravitreal administration; assay type: in vivo, C57BL/6 mouse; details: for amount of neovascularization: intravitreal once on day 12, 30 mg/ml, eyes examined day 17, versus controls; for pupils of treated animals: for the duration of the study
Procedure: Seven day old neonatal C57BL/6 mouse pups and their nursing dam were placed in an isobaric chamber that maintains a 75% oxygen level. The pups were returned to a normoxic environment at 12 days of age. The test articles and vehicle controls were administered intravitreally (once on day 12). Approximately one half of the pups from each litter were injected, the remaining pups were used as controls. Pups were euthanized on day 17 and their left/treated eye is processed for histological sectioning. […] The degree of neovascularization was measured by examining serial sections of the eye taken at 100 micron intervals. The numbers of endothelial nuclei that were internal but contiguous to the inner limiting membrane were counted. The number of nuclei from test article treated animals was compared with those counted in control animals. [table]

[5] = system: Primary Human Dermal Fibroblasts; experiment: in vitro; details: read-out: D. Fibroblast LC50; 6 days, Alamar blue
Procedure: as §2, §3

[6] = Homo sapiens, HMVEC, 144 h, b-FGF 2.5 ng/mL, 6 days, Alamar blue, read-out: b-FGF LC50
[7] = Homo sapiens, HMVEC, 144 h, VEGF 165 10 ng/mL, 6 days, Alamar blue, read-out: VEGF LC50
[8] = b-FGF 2.5 ng/mL, 6 days, Alamar blue, read-out: b-FGF LC50
[9] = VEGF 165 10 ng/mL, 6 days, Alamar blue, read-out: VEGF LC50

| Structure (SMILES) | CC50 [1, 6] | CC50 [2, 7] | CC50 at 6 days [3] | other results |
| --- | --- | --- | --- | --- |
| CN1CCCC[C@H]1C(=O)Nc1cccc2cccnc12 [Compound 69] | 2600 nM | 3100 nM | > 10000 nM | – |
| CN1CCN(c2ccc(NC(=O)c3ccccn3)c3ncccc23)CC1 [Compound 98] | 36 nM | 33 nM | > 10000 nM | amount of neovascularization [4]: a decrease in the amount of neovascularization; pupils of treated animals ([4]; intravitreal): markedly dilated |
| O=C(Nc1cccc2nccnc12)c1ccccn1 [Compound 94] | 290 nM | 280 nM | > 10000 nM | – |
| Cc1ccc(NC(=O)c2ccccn2)c2ncccc12 [Compound 96] | 100 nM | 140 nM | > 10000 nM | – |
| O=C(Nc1ccc(N2CCOCC2)c2cccnc12)c1cc(Cl)ccn1 [Compound 51] | 230 nM | 220 nM | > 10000 nM | – |
| COc1cc(NC(=O)c2cc(Cl)ccn2)c2ncccc2c1 [Compound 52] | 85 nM | 93 nM | > 10000 nM | – |
| COc1cc(NC(=O)c2cc(N3CCOCC3)ccn2)c2ncccc2c1 [Compound 53] | 28 nM | 30 nM | > 10000 nM | – |
| O=C(CN1CCCC1)Nc1cccc2cccnc12 [Compound 56] | 1400 nM | 1300 nM | > 10000 nM | – |
| COc1cc(NC(=O)c2cc(N3CCN(C)CC3)ccn2)c2ncccc2c1 [Compound 105] | – | – | 9600 nM | CC50 [1, 8]: 120 nM; CC50 [2, 9]: 91 nM |
| CCN(C)c1ccccc1NC(=O)c1ccccn1 [Compound 106] | 1200 nM | 1500 nM | > 10000 nM | – |
| CN1CCN(c2ccc(NS(=O)(=O)c3ccccn3)c3ncccc23)CC1 [Compound 110] | 1300 nM | 1500 nM | > 10000 nM | – |
| CN1CCC[C@H]1C(=O)Nc1ccc(N2CCOCC2)c2cccnc12 [Compound 68] | 820 nM | 430 nM | > 10000 nM | – |
| CN1CCC[C@H]1C(=O)Nc1cccc2cccnc12 [Compound 107] | – | – | > 10000 nM | CC50 [1, 8]: 410 nM; CC50 [2, 9]: 460 nM |
| O=C(Nc1cccc2cccnc12)[C@@H]1CCCN1 [Compound 57, (S)-pyrrolidine-2-carboxylic acid quinolin-8-ylamide] | 1200 nM | 1300 nM | > 10000 nM | – |
| O=C(Nc1cccc2cccnc12)c1ccccn1 [Compound 93, pyridine-2-carboxylic acid quinolin-8-ylamide hydrochloride salt] | 71 nM | 72 nM | > 10000 nM | – |
| Cc1cc(NC(=O)[C@@H]2CCCN2C)c2ncccc2c1 [Compound 67] | 350 nM | 230 nM | > 10000 nM | – |
| Cc1cccnc1C(=O)Nc1ccc(N2CCOCC2)c2cccnc12 [Compound 50] | 74 nM | 110 nM | > 10000 nM | – |
| CCCN1CCC[C@H]1C(=O)Nc1cccc2cccnc12 [Compound 62] | 1200 nM | 1300 nM | > 10000 nM | – |
| O=C(Nc1cccc2cccnc12)c1ncccc1OCc1ccccc1 [Compound 47, 3-benzyloxypyridine-2-carboxylic acid quinolin-8-ylamide] | 400 nM | 280 nM | > 10000 nM | – |
| C[C@@H](C(=O)Nc1cccc2cccnc12)N(C)C [Compound 60] | 520 nM | 730 nM | > 10000 nM | – |
| O=C(Nc1cccc2cccnc12)[C@@H]1CCCN1CC1CC1 [Compound 61] | 1500 nM | 1500 nM | > 10000 nM | – |
| CN1CCC[C@@H]1C(=O)Nc1cccc2cccnc12 [Compound 65] | 290 nM | 230 nM | > 10000 nM | – |
| O=C(Nc1cccc2cccnc12)c1cc(Sc2ccccc2)ccn1 [Compound 31, 4-phenylsulfanylpyridine-2-carboxylic acid quinolin-8-ylamide] | 150 nM | 170 nM | > 10000 nM | – |
| O=C(Nc1ccc(N2CCOCC2)c2cccnc12)c1ccccn1 [Compound 9] | – | – | – | amount of neovascularization [4]: a decrease in the amount of neovascularization; effect on neovascularization, Compound 9 compared with Compound 98 ([4]; intravitreal, 30 mg/ml, FIG. 1 and FIG. 2): A greater effect; pupils of treated animals ([4]; intravitreal): markedly dilated; CC50 [1]: 37 nM; CC50 [2]: 35 nM; CC50 [5]: > 10000 nM |
